# Measurements published in PMC4577729, “7-(Pyrazol-4-yl)-3H-imidazo[4,5-b]pyridine-based derivatives for kinase inhibition: Co-crystallisation studies with Aurora-A reveal distinct differences in the orientation of the pyrazole N1-substituent” (Bioorganic & Medicinal Chemistry Letters, 2015).
# Molecular target: Aurora B (Homo sapiens, UniProt Q96GD4)
# Experiment: Kinase selectivity profiling
# Type: biochemical
# Details: 1 µM, assay duplicates
# Summary of the method: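 Each compound was tested at a single concentration of 1 µM within a broad panel of 102 or 105 protein kinases run by an external profiling centre.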
# Sequence of Aurora B (Q96GD4 whole entry): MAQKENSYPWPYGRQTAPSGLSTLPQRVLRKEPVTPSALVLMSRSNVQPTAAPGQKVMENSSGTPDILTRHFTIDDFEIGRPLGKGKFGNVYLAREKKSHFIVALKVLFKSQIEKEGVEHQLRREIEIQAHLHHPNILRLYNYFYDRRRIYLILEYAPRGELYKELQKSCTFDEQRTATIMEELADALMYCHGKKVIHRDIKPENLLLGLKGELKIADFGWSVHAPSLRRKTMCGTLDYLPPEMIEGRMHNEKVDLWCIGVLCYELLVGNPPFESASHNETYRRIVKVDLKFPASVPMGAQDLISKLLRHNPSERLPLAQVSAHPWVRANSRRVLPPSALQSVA
smiles,measurement,value
Cc1cc(Cn2cc(-c3c(Cl)cnc4[nH]c(-c5cn(C)nc5C)nc34)cn2)no1 [Compound 14d],Aurora B % activity remaining,8%
